Measurements reported in the supplement of paper PMC11061612.

How the values were obtained:
ACHN (Kidney Carcinoma) [1] = assay: Bliss excess, mean over the matrix (fraction); higher = more synergy
Method in brief: (§1)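 After 24 hours at 37°C and 5% CO2 in 1536-well plates, cells in DMEM/F12 or RPMI plus 10% FBS received two-drug dose matrices for 72 hours. Viability came from CellTiter-Glo 2.0 luminescence and was scaled as inhibition, anchored at 0 by vehicle wells and at 1 by blank wells. Combination Emax is taken as the second-highest inhibition in the matrix, and Bliss excess as the observed combination effect less EA + EB − EA·EB, with EA and EB the single-agent effects.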

[2] = tested on: Ca9-22 (Head and Neck Carcinoma); assay: as above
Method in brief: as §1

[3] = tested on: Caov-4 (Ovarian Carcinoma); assay: as above
Method in brief: as §1

D-263MG (Glioblastoma) = assay: as above
Method in brief: as §1

[4] = tested on: EFM-19 (Breast Carcinoma); assay: as above
Method in brief: as §1

[5] = tested on: EoL-1-cell (Acute Myeloid Leukemia); assay: as above
Method in brief: as §1

[6] = tested on: Hs-766T (Pancreatic Carcinoma); assay: as above
Method in brief: as §1

[7] = tested on: KARPAS-299 (T-Cell Non-Hodgkin's Lymphoma); assay: as above
Method in brief: as §1

[8] = tested on: MIA-PaCa-2 (Pancreatic Carcinoma); assay: as above
Method in brief: as §1

[9] = tested on: MLMA (Other Blood Carcinomas); assay: as above
Method in brief: as §1

NB69 (Neuroblastoma) = assay: as above
Method in brief: as §1

[10] = tested on: NCI-H358 (Lung Adenocarcinoma); assay: as above
Method in brief: as §1

[11] = tested on: PANC-04-03 (Pancreatic Carcinoma); assay: as above
Method in brief: as §1

TGW (Neuroblastoma) = assay: as above
Method in brief: as §1

TK10 (Kidney Carcinoma) = assay: as above
Method in brief: as §1

ACHN (Kidney Carcinoma) [12] = assay: combination Emax (second highest fraction inhibited in the dose matrix, 72 h); higher = more inhibition; extreme values may be limits of the assay
Method in brief: as §1

EW-24 (Ewing's Sarcoma) = assay: as above
Method in brief: as §1

[13] = tested on: KYSE-450 (Esophageal Squamous Cell Carcinoma); assay: as above
Method in brief: as §1

[14] = tested on: PANC-04-03 (Pancreatic Carcinoma); assay: as above
Method in brief: as §1

[15] = tested on: RF-48 (B-Cell Non-Hodgkin's Lymphoma); assay: as above
Method in brief: as §1
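Throughout, for Bliss excess, mean over the matrix: after 72 h of two-drug dosing.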

SMILES | Bliss excess (ACHN (Kidney Carcinoma) [1]) | Bliss excess [2] | Bliss excess [3] | Bliss excess (D-263MG (Glioblastoma)) | Bliss excess [4] | Bliss excess [5] | Bliss excess [6] | Bliss excess [7] | Bliss excess [8] | Bliss excess [9] | Bliss excess (NB69 (Neuroblastoma)) | Bliss excess [10] | Bliss excess [11] | Bliss excess (TGW (Neuroblastoma)) | Bliss excess (TK10 (Kidney Carcinoma)) | combination Emax (ACHN (Kidney Carcinoma) [12]) | combination Emax (EW-24 (Ewing's Sarcoma)) | combination Emax [13] | combination Emax [14] | combination Emax [15]
Cc1cc2ncnn2cc1Nc1ncc2c(n1)n(C1CCOCC1)c(=O)n2C [AZD7648] + C[C@@H]1COCCN1C2=NC(=NC(=C2)C3(CC3)[S@](=N)(=O)C)C4=C5C=CNC5=NC=C4 [AZD6738] (first compound max 10 µM, 7x7, partner max 10 µM) | -0.0316 | 0.0578 | 0.0087 | -0.0206 | 0.0323 | -0.0123 | 0.0552 | -0.0183 | -0.0254 | -0.0289 | 0.0172 | 0.0099 | 0.0123 | 0.0388 | 0.0062 | 0.888 | 0.61 | 0.593 | 0.522 | 0.528
CN(CCO)CC[C@H](CSc1ccccc1)Nc1ccc(S(=O)(=O)NC(=O)c2ccc(N3CCC([C@@H](O)c4ccccc4-c4ccc(Cl)cc4)CC3)cc2)cc1S(=O)(=O)C(F)(F)F [AZD4320] + C=CCn1c(=O)c2cnc(Nc3ccc(N4CCN(C)CC4)cc3)nc2n1-c1cccc(C(C)(C)O)n1 [AZD1775] (first compound max 1 µM, partner max 1 µM) | 0.0342 | 0.0335 | -0.0248 | -0.0277 | 0.0433 | -0.0146 | -0.0431 | 0.0477 | -0.0176 | 0.0379 | 0.0032 | -0.0765 | -0.048 | -0.008 | 0.0515 | 0.986 | 0.913 | 0.64 | 0.486 | 0.885
CN(CCO)CC[C@H](CSc1ccccc1)Nc1ccc(S(=O)(=O)NC(=O)c2ccc(N3CCC([C@@H](O)c4ccccc4-c4ccc(Cl)cc4)CC3)cc2)cc1S(=O)(=O)C(F)(F)F [AZD4320] + Cn1cnc2c(F)c(Nc3ccc(Br)cc3Cl)c(C(=O)NOCCO)cc21 [Selumetinib] (first compound max 1 µM, 7x7, partner max 3 µM) | 0.0429 | 0.0415 | 0.0418 | -0.0094 | -0.102 | 0.0593 | -0.013 | 0.0476 | -0.0098 | 0.0436 | -0.0973 | 0.0054 | 0.0708 | 0.0147 | -0.0867 | 0.346 | 0.892 | 0.386 | 0.406 | 0.951
CN(CCO)CC[C@H](CSc1ccccc1)Nc1ccc(S(=O)(=O)NC(=O)c2ccc(N3CCC([C@@H](O)c4ccccc4-c4ccc(Cl)cc4)CC3)cc2)cc1S(=O)(=O)C(F)(F)F [AZD4320] + C1CN(CCC1(C(=O)N[C@@H](CCO)C2=CC=C(C=C2)Cl)N)C3=NC=NC4=C3C=CN4 [Capivasertib] (first compound max 1 µM, 7x7, partner max 3 µM) | -0.0341 | -0.0055 | -0.0357 | -0.0512 | -0.0292 | 0.0007 | -0.0492 | -0.0024 | -0.0476 | 0.0534 | -0.0554 | -0.0172 | -0.0875 | 0.0065 | -0.0676 | 0.121 | 0.869 | 0.199 | 0.178 | 0.817
C[C@@H](c1ccc2nccn2c1)n1nnc2ncc(-c3cnn(C)c3)nc21 [Savolitinib] + Cc1c2c(nn1C)CSCc1cc(n(C)n1)CSc1cc(c3ccccc3c1)OCCCc1c(C(=O)O)n(C)c3c-2c(Cl)ccc13 [AZD5991] (first compound max 1 µM, 7x7, partner max 1 µM) | -0.0103 | -0.01 | -0.011 | -0.0571 | -0.0236 | 0.0703 | -0.0404 | 0.081 | -0.007 | -0.0122 | -0.0122 | -0.0538 | -0.0216 | -0.0467 | -0.0486 | 0.174 | 0.196 | 0.115 | 0.165 | 0.275
CN(CCO)CC[C@H](CSc1ccccc1)Nc1ccc(S(=O)(=O)NC(=O)c2ccc(N3CCC([C@@H](O)c4ccccc4-c4ccc(Cl)cc4)CC3)cc2)cc1S(=O)(=O)C(F)(F)F [AZD4320] + C[C@@H]1COCCN1C2=NC(=NC(=C2)C3(CC3)[S@](=N)(=O)C)C4=C5C=CNC5=NC=C4 [AZD6738] (first compound max 1 µM, 7x7, partner max 10 µM) | -0.0099 | 0.0001 | -0.027 | -0.0424 | -0.0511 | 0.0252 | -0.108 | -0.0153 | -0.045 | 0.0229 | -0.0533 | -0.0195 | -0.0714 | -0.0629 | -0.0797 | 0.986 | 0.954 | 0.547 | 0.461 | 0.917
C[C@@H](c1ccc2nccn2c1)n1nnc2ncc(-c3cnn(C)c3)nc21 [Savolitinib] + CC1(C)CCC(CN2CCN(c3ccc(C(=O)NS(=O)(=O)c4ccc(NCC5CCOCC5)c([N+](=O)[O-])c4)c(Oc4cnc5[nH]ccc5c4)c3)CC2)=C(c2ccc(Cl)cc2)C1 [Venetoclax] (first compound max 1 µM, 7x7, partner max 1 µM) | -0.0443 | -0.0231 | -0.0839 | -0.0797 | -0.0273 | 0.0273 | -0.0681 | -0.0121 | -0.0355 | -0.022 | -0.0378 | -0.0564 | -0.0736 | -0.0486 | -0.0568 | 0.127 | 0.172 | 0.0763 | 0.202 | 0.384
